Results published in patent publication US4382142A, “Thiadiazole derivatives and process for preparing same” (Kowa Co., Ltd., priority 1978, dated 1983).
Structures can show the parent of a compound that is named as a salt. Where two headings read alike, the source gives them in different places.

How the values were obtained:
[1] = Acute toxicity (LD50, Litchfield-Wilcoxon method) after intraperitoneal injection in ddy mice; conditions: mouse, in vivo, ip
Method: The median lethal dose (LD50) of each of the test compounds was
determined by the LitchfieldWilcoxon method after the intraperitoneal
injection of the compound into ddy mice.

P388 leukemia = experiment: Antitumor test: survival of CDF1 mice inoculated intraperitoneally with P388 leukemia; format: in vivo; conditions: Mus musculus, ip, i.p., 24 hours and 5 days after inoculation, 10^6 P388 i.p., read-out: Survival Effect (survival days of treated relative to control animals); for response vs control in vivo at 200 mg/kg: 200 mg/kg/day; for response vs control in vivo at 400 mg/kg: 400 mg/kg/day
Method: Each experimental group was composed of six CDF1 mice. The mice were
inoculated intraperitoneally with 10^6 P388 leukemia, and the test
compounds dissolved in a physiological salt solution were administered
intraperitoneally to the animals 24 hours and 5 days, respectively, after
the inoculation. The survival effect of each of the compounds was
expressed by the percentage of the survival days of the treated animals i
each group relative to those of the control animals.

[2] = intraperitoneal, ddy mice, read-out: Acute Toxicity LD50

| Compound | LD50 [1] [mg/kg] | response vs control in vivo at 200 mg/kg (P388 leukemia) [%] | response vs control in vivo at 400 mg/kg (P388 leukemia) [%] | response vs control in vivo at 100 mg/kg (P388 leukemia; 100 mg/kg/day) [%] | response vs control in vivo at 460 mg/kg (P388 leukemia; 460 mg/kg/day) [%] | response vs control in vivo at 600 mg/kg (P388 leukemia; 600 mg/kg/day) [%] | LD50 [1, 2] [mg/kg] |
| --- | --- | --- | --- | --- | --- | --- | --- |
| CC(C)CC(N)C(=O)Nc1nncs1 (stereo not drawn) [A, 2DL-Leucylamino-1,3,4-thiadiazole.hydrochloride] | > 1600 | 141 | 154 |  |  |  |  |
| CC(C)C[C@H](N)C(=O)Nc1nncs1 [B, 2L-Leucylamino-1,3,4-thiadiazole.hydrochloride] | > 500 | 144 | 161 |  |  |  |  |
| CC(C)C[C@@H](N)C(=O)Nc1nncs1 [C, 2D-Leucylamino-1,3,4-thiadiazole.hydrochloride] | > 500 | 116 | 157 |  |  |  |  |
| CCC(C)C(N)C(=O)Nc1nncs1 (stereo not drawn) [D, 2DL-Isoleucylamino-1,3,4-thiadiazole.dihydrochloride] | 357 | 157 |  |  |  |  |  |
| CC(C)C(N)C(=O)Nc1nncs1 (stereo not drawn) [E, 2DL-Valylamino-1,3,4-thiadiazole.hydrochloride] | > 1600 | 143 | 155 |  |  |  |  |
| CC(C)[C@H](N)C(=O)Nc1nncs1 [F, 2L-Valylamino-1,3,4-thiadiazole.hydrochloride] | > 500 | 183 | 190 |  |  |  |  |
| CC(C)[C@@H](N)C(=O)Nc1nncs1 [G, 2D-Valylamino-1,3,4-thiadiazole.hydrochloride] | > 500 | 93 | 102 |  |  |  |  |
| CSCCC(N)C(=O)Nc1nncs1 (stereo not drawn) [H, 2DL-Methionylamino-1,3,4-thiadiazole.hydrochloride] | > 1600 | 121 | 124 |  |  |  |  |
| NC(C(=O)Nc1nncs1)c1ccccc1 (stereo not drawn) [I, 2Dl-Phenylglycylamino-1,3,4-thiadiazole.hydrobromide] | > 1600 | 125 | 146 |  |  |  |  |
| NC1(C(=O)Nc2nncs2)CCCC1 [J, 2Cycloleucylamino-1,3,4-thiadiazole.hydrochloride] | 165 |  |  | 153 |  |  |  |
| N[C@@H](CC(=O)O)C(=O)Nc1nncs1 [K, 2L-Aspartylamino-1,3,4-thiadiazole.monohydrate] | > 1600 |  |  |  | 116 | 119 |  |
| N[C@@H](Cc1c[nH]c2ccccc12)C(=O)Nc1nncs1 [L, 2L-Tryptophylamino-1,3,4-thiadiazole.hydrochloride] |  | 143 | 151 |  |  |  | 1200 |
| N[C@@H](Cc1ccccc1)C(=O)Nc1nncs1 [M, 2L-Phenylalanylamino-1,3,4-thiadiazole.hydrobromide] |  | 145 | 156 |  |  |  | 1200 |
